Results taken from patent publication US20260002931A1, “CULTURED CELL SHEET AND METHOD FOR PRODUCING SAME; METHOD FOR EVALUATING COMPOUND OR DRUG; AND METHOD FOR EVALUATING QUALITY OF CULTURED CELL SHEET” (OJI HOLDINGS CORPORATION, priority 2022, published 2026).

Assays:
[1] = system: iCell cardiomyocytes CM2 (human iPS cell-derived cardiomyocytes); assay: Drug safety test-2: motion test method using live cell imaging device, CM2 cultured for 15 days; assay type: cell-based; conditions: for beating rate (BR), relative to dose0 / contractile velocity (CV), relative to dose0 / relaxation velocity (RV), relative to dose0: day 15, doses of Table 7, 120 min isoproterenol, 15 min milrinone
Description: The drug used was isoproterenol and milrinone. […] First, the measurement as dose0 was performed without adding drugs.
For the cell responsiveness after drug administration, a motion test method using a live cell imaging device (SI8000, manufactured by Sony Corporation) was performed to investigate the effect on the beating rate, the contractile velocity, and the relaxation velocity.
CM2 on day 15 of maintenance culture was used, and video data was first obtained as dose0 using SI8000 (manufactured by Sony Corporation) without adding drugs. Immediately after the measurement, each drug at the concentration of each dose was added to the same well plate, and video data was obtained after 120 minutes for isoproterenol and after 15 minutes for milrinone. The addition test of each drug was performed at n=5.
The beating rate (BR), the contractile velocity (CV), and the relaxation velocity (RV) were analyzed from the video data of SI8000, and the effects of the drugs on the motion of the cells were compared.
The measurement data was corrected with the average value of dose0 of no adding drugs (each measurement value/measurement value of dose0), and the relative value with setting the measurement value of dose0 as 1 was determined.

[2] = system: iCell cardiomyocyte CM2 (human iPS cell-derived cardiomyocytes); assay: Drug safety test-1: arrhythmia measurement by Ca-imaging (CQ1); assay type: cell-based; conditions: for duration (20% waveform width of Ca transient) / interval between peaks of Ca transient: cumulative dose1-dose3 of Table 2
Description: (§1) The drug was dissolved in DMSO and cumulatively administered. First, the measurement as dose0 was performed without adding drugs. […] Subsequently, immediately after the measurement, the drug was added to the same well, respectively so that the concentration was dose2, and the measurement was performed after 15 minutes. The same was done for dose3.
(§2) For the cell responsiveness after the drug administration, an arrhythmia measurement method by Ca-imaging using a confocal imaging device (CQ1, manufactured by Yokogawa Electric Corporation) and a motion test method using a live cell imaging device (SI8000, manufactured by Sony Corporation) were performed to investigate the effect on the beating rate and the line width of the beating peak.
To CM2 on day 6 of maintenance culture, a fluorescent Ca indicator (EarlyTox carditotoxicity kit, manufactured by Molecular Devices, LLC.) was added, and living cells were stained. First, the change in Ca fluorescence intensity associated with the contraction of cardiomyocytes was measured as Dose0 in CQ1 without adding drugs. Immediately after the measurement, each drug at the concentration of Dose1 was added to the same well plate, and the change in Ca fluorescence intensity was measured after 15 minutes. For Dose2 and Dose3, the drug was cumulatively administered in the same manner, and the change in Ca fluorescence intensity was measured. The addition test of each drug was performed at n=6.
The significant difference test was performed between the subject group in which DMSO was added and the drug addition group in CM2 cultured in the planar plate and CM2 cultured the aligned plate.
For the side effects seen from the waveform changes of Ca transient, early after depolarization (EAD) and delayed after depolarization (DAD), small regular waveforms (VT-like), and reaction (waveform) disappearance were recorded. The“−” in the table indicates the state in which no arrhythmia or the like has occurred. The degree of arrhythmia is mild for EAD, moderate for DAD, and severe for vt-like.

[3] = system: iCell cardiomyocyte CM2 (human iPS cell-derived cardiomyocytes); assay: Drug safety test-1: motion test method using live cell imaging device (SI8000); assay type: cell-based; conditions: for CRD (corrected with the beating rate): Dose2 0.3 μM and Dose3 1 μM, vs DMSO group; for beating rate (BR) / relaxation velocity (RV): day 5, cumulative dose1-dose3 of Table 2; for CRD (corrected with beating rate): Dose1 1 μM, Dose2 3 μM, Dose3 10 μM
Description: as §1, §2
CM2 on day 5 of maintenance culture was used, and video data was first obtained as Dose0 using SI8000 (manufactured by Sony Corporation) without adding drugs. Immediately after the measurement, each drug at the concentration of dose1 was added to the same well plate, and video data was obtained after 15 minutes. For Dose2 and Dose3, the drug was cumulatively administered in the same manner, and video data was obtained. The addition test of each drug was performed at n=6.
The beating rate (BR), the contractile velocity (CV), the relaxation velocity (RV), and the contraction-relaxation duration (CRD) were analyzed from the video data of S18000, and the effects of the drugs on the motion of the cells were compared. The contraction-relaxation duration (CRD) was corrected by the following equation with reference to the equation of Frederica to correct variation due to the beating rate (BR).
For the side effects seen from the change in the parameters of SI8000, early after depolarization (EAD) and delayed after depolarization (DAD), small regular waveforms (VT-like), and reaction (waveform) disappearance were recorded. Changes in waveforms not classified into EAD or DAD were described as arrhythmia. The “-” in the table indicates the state in which no arrhythmia or the like has occurred.
The degree of arrhythmia is mild for EAD, moderate for DAD, and severe for vt-like.

[4] = system: CM2 (human iPS cell-derived cardiomyocytes); assay: Measurement of oxygen consumption rate with β-oxidation inhibitor; assay type: cell-based; conditions: day 27, 50 μM; for OCR with addition of Etomoxir: 10 to 70 minutes
Description: The measurement was performed using an oxygen consumption rate plate assay kit (manufactured by DOJINDO LABORATORIES, E297).
To the well plate in which CM2 was cultured, an oxygen probe diluted with medium was added and allowed to stand for 30 minutes in a plate reader incubated at 37° C. in advance. Next, a sample solution containing a β-oxidation inhibitor Etomoxir that inhibits a fatty acid metabolism enzyme at the final concentration 50 μM was added, and mineral oil was immediately added dropwise to block the supply of oxygen.
After allowing the well plate to stand for 5 minutes in a plate reader incubated at 37° C., the fluorescence intensity was measured over time. The fluorescent plate reader was measured under conditions of an excitation wavelength of 495 nm/fluorescence wavelength of 650 nm, and the data acquisition was performed for at least 168 minutes every 10 minutes.
The measurement was performed with 6 wells without addition of Etomoxir as control and 3 wells with addition of 50 μM Etomoxir.
The oxygen concentration (pmol) was calculated with the calculation sheet attached to the oxygen consumption rate plate assay kit, and the oxygen consumption rate (pmol/min) was calculated from the oxygen concentration reduction amount for 60 minutes of 10 to 70 minutes after the start of the measurement.

[5] = system: iCell cardiomyocyte CM2 (human iPS cell-derived cardiomyocytes); assay: Drug safety test-3 (anti-cancer drug): motion test method using live cell imaging device, CM2 cultured for 15 days; conditions: 3 μM; for beating rate (BR), change rate vs pre-measurement: day 15, after 24 and 48 hours
Description: iCell cardiomyocytes (iCell Cardiomyocyte v2.0, manufactured by FUJIFILM Cellular Dynamics, Inc.) were used as human iPS cell-derived cardiomyocytes (hereinafter referred to as CM2). The culture was performed by the following procedure.
In the same procedure as in the above (10), CM2 was seeded at a concentration of 6×10^4 cells/well in the aligned plate (96 well plate, ND Cell Aligner) and the planar plate (96 well plate). A maintenance culture was performed in a 37° C. CO2 incubator, and the drug was administered on day 15 with setting the day of seeding as day 0.
The drug was dissolved in DMSO and administered. First, as a pre-measurement, a measurement was performed without adding the drug. Immediately after the measurement, the drug dissolved in DMSO was added to each well so that the concentration was 3 PM, and the measurement was performed after 24 hours and 48 hours. The measurement was performed in the same manner as the (10-1) measurement by motion test method using live cell imaging device described above.
For the measurement data, the measurement value at the concentration of 3 μM was corrected with the average value of the pre-measurement without adding the drug (measurement value at 3 μM/measurement value of pre-measurement), and the change rate with setting the measurement value of the pre-measurement as 1 was determined.
In addition, a T test was performed between the planar plate and the aligned plate in the drug addition group. For the comparison group with a P value of 0.01 or less, the graph was marked.
DMSO used as the solvent was added so that the final concentration was 0.01%. The effect of DMSO was confirmed by measuring 0.01% DMSO addition group after 24 hours and 48 hours. The measurement data were processed in the same manner as the drug addition group.

[6] = aligned and planar plates, day 6

Which “beating rate (BR), relative to dose0” value ([1]; aligned plate) does the source give for `Cc1[nH]c(=O)c(C#N)cc1-c1ccncc1` [Milrinone] here?
The value was “increased”.

What about the “contractile velocity (CV), relative to dose0” value ([1]; aligned plate) of the same molecule?
The value was “increased”.

And the “relaxation velocity (RV), relative to dose0” value ([1]; aligned plate)?
The value was “increased”.

What about the “RV, aligned plate compared to planar plate” value ([1]; milrinone) of the same molecule?
Its value is “significantly increased”.

And the “contractile velocity (CV), aligned plate compared to planar plate” value ([1]; milrinone dose3 (300 μM))?
Its value is “significantly increased”.

And the “relaxation velocity (RV), aligned plate compared to before the drug addition” value ([1]; milrinone dose3 (300 μM))?
Its value is “predominantly increased”.

And the “beating rate (BR), aligned plate compared to before the drug addition” value ([1]; milrinone, all doses (30, 100, 300 μM))?
The value was “predominantly increased”.

What about the “beating rate (BR), relative to dose0” value ([1]; planar plate) of the same molecule?
Its value is “did not change”.

What about the “contractile velocity (CV), relative to dose0” value ([1]; planar plate) of the same molecule?
The value was “tended to reduce”.

What about the “relaxation velocity (RV), relative to dose0” value ([1]; planar plate) of the same molecule?
Its value is “tended to reduce”.

How did the “Duration of Ca transient, planar plate compared with aligned plate” value ([2]; E-4031 0.1 μM, day 6) turn out when `Cc1cccc(CCN2CCC(C(=O)c3ccc(NS(C)(=O)=O)cc3)CC2)n1` [E-4031] was run?
The value was “slightly longer”.

And the “Duration of Ca transient, planar plate compared with aligned plate” value ([2]; E-4031 0.3 μM, day 6)?
Its value is “significantly longer”.

And the “Duration of Ca transient, planar plate” value ([2]; E-4031 1 μM, day 6)?
The value was “not significantly but remarkably extended”.

And the “CRD (corrected with the beating rate)” value ([3]; aligned plate)?
The value was “significantly reduced”.

What about the “beating rate (BR)” value ([3]; aligned plate) of the same molecule?
Its value is “reduced”.

What about the “relaxation velocity (RV)” value ([3]; aligned plate) of the same molecule?
The value was “reduced”.

What about the “CRD (corrected with the beating rate)” value ([3]; planar plate) of the same molecule?
The value was “significantly reduced”.

What about the “CRD (corrected with the beating rate), planar plate compared with aligned plate” value ([3]; planar plate, E-4031) of the same molecule?
Its value is “reduced more remarkably”.

And the “beating rate (BR)” value ([3]; planar plate)?
Its value is “reduced”.

What about the “relaxation velocity (RV)” value ([3]; planar plate) of the same molecule?
Its value is “reduced”.

What does the source list for `CCOC(=O)[C@@]1(CCCCCCOc2ccc(Cl)cc2)CO1` [Etomoxir]?
OCR compared to OCR before addition ([4]; aligned plate): 11.0%; OCR with addition of Etomoxir ([4]; aligned plate): 7.0 pmol/min; OCR compared to OCR before addition ([4]; planar plate): 98.3%; OCR with addition of Etomoxir ([4]; planar plate): 77.8 pmol/min

Which “incidence of moderate to severe arrhythmia (DAD, VT-like)” value (from here on “incidence of moderate … (DAD, VT-like)”) ([2]; aligned plate, quinidine Dose1, 3 μM, wells of 6) does the source give for `C=C[C@H]1C[N@@]2CC[C@H]1C[C@@H]2[C@@H](O)c1ccnc2ccc(OC)cc12` [Quinidine] here?
Its value is 0/6.

And the “incidence of moderate … (DAD, VT-like)” value ([2]; aligned plate, quinidine Dose2, 10 μM, wells of 6)?
The value was 0/6.

What about the “incidence of moderate … (DAD, VT-like)” value ([2]; aligned plate, quinidine Dose3, 30 μM, wells of 6) of the same molecule?
Its value is 6/6.

And the “incidence of moderate to severe arrhythmia” value ([2]; planar plate, quinidine Dose1, 3 μM, wells of 6)?
Its value is 0/6.

What about the “incidence of moderate to severe arrhythmia” value ([2]; planar plate, quinidine Dose2, 10 μM, wells of 6) of the same molecule?
The value was 0/6.

What about the “incidence of moderate to severe arrhythmia” value ([2]; planar plate, quinidine Dose3, 30 μM, wells of 6) of the same molecule?
The value was 4/6.

What about the “duration of Ca transient, planar plate compared to aligned plate” value ([2]; quinidine Dose2, 10 μM) of the same molecule?
The value was “longer extension”.

And the “interval of Ca transient, planar plate compared to aligned plate” value ([2]; quinidine Dose2, 10 μM)?
The value was “longer extension”.

And the “peak height of Ca transient, planar plate compared to aligned plate” value ([2]; quinidine Dose2, 10 μM)?
Its value is “significantly weaker decrease”.

What about the contraction force ([2]; quinidine Dose3, 30 μM) of the same molecule?
Its contraction force is “greatly reduced”.

What about the “waveform of Ca transient” value ([2]; quinidine Dose3, 30 μM) of the same molecule?
Its value is “changed to a higher frequency waveform”.

Which results are given for `CC(C)NCC(O)c1ccc(O)c(O)c1` (stereo not drawn) [Isoproterenol]?
duration (20% waveform width of Ca transient) [2, 6]: Reduction was observed; interval between peaks of Ca transient [2, 6]: Reduction was observed; arrhythmia ([2]; aligned and planar plates, up to high concentration (Dose3, 10 μM)): arrhythmia did not occur; reduction in duration ([2]; planar plate, isoproterenol 1, 3, 10 μM): small; arrhythmia or the like ([3]; aligned and planar plate, any concentration (1, 3, 10 μM)): No arrhythmia or the like was observed; CRD (corrected with beating rate) ([3]; aligned plate): extended; beating rate (BR) ([3]; aligned plate): tended to increase; relaxation velocity (RV) ([3]; aligned plate): tended to increase; change of CRD compared with the solvent (DMSO) ([3]; planar plate, 1, 3, 10 μM): largely different from that of the solvent (DMSO); CRD (corrected with beating rate) ([3]; planar plate): extended; beating rate (BR) ([3]; planar plate): tended to increase; relaxation velocity (RV) ([3]; planar plate): tended to increase; beating rate (BR), relative to dose0 ([1]; aligned plate): increased; contractile velocity (CV), relative to dose0 ([1]; aligned plate): increased; relaxation velocity (RV), relative to dose0 ([1]; aligned plate): increased; relaxation velocity, aligned plate compared to planar plate ([1]; isoproterenol dose2 (0.3 μM) and dose3 (3 μM)): increased; beating rate (BR), relative to dose0 ([1]; planar plate): increased; contractile velocity (CV), relative to dose0 ([1]; planar plate): tended to reduce; relaxation velocity (RV), relative to dose0 ([1]; planar plate): increased

What does the source list for `COc1cccc2c1C(=O)c1c(O)c3c(c(O)c1C2=O)C[C@@](O)(C(=O)CO)C[C@@H]3O[C@H]1C[C@H](N)[C@H](O)[C@H](C)O1` [Doxorubicin, doxorubicin]?
beating rate, aligned plate compared to planar plate [5]: significantly increased; beating rate, result after 48 hours compared with after 24 hours [5]: more increased; RV, aligned plate compared to planar plate ([5]; after 48 hours): significantly increased; relaxation velocity (RV), change rate vs pre-measurement ([5]; aligned plate): increased; beating rate (BR), change rate vs pre-measurement ([5]; aligned plate): increased; relaxation velocity (RV), change rate vs pre-measurement ([5]; planar plate): increased; beating rate (BR), change rate vs pre-measurement ([5]; planar plate): increased

What does the source list for `COc1cc(N)c(Cl)cc1C(=O)NC1CCN(CCCOc2ccc(F)cc2)CC1OC` (stereo not drawn) [Cisapride]?
duration (20% waveform width of Ca transient) [2, 6]: extended in a dose-dependent manner; interval between peaks of Ca transient [2, 6]: extended in a dose-dependent manner; incidence of arrhythmia ([2]; aligned plate, cisapride Dose1 0.01 μM to Dose3 0.1 μM, wells of 6): 1/6; difference between the value at Dose0 and at Dose3 (duration, interval), aligned plate versus planar plate ([2]; cisapride, Dose3 0.1 μM): smaller; incidence of arrhythmia ([2]; planar plate, cisapride 0.01-0.1 μM): No arrhythmia occurred
